From BigSolDB 2.1

CC(=O)c1cccc([N+](=O)[O-])c1
solubility (mole fraction)
Conditions	in acetone	in acetonitrile	in cyclohexane	in ethanol	in ethyl acetate	in isopropanol	in methanol	in n-propanol	in toluene
278.15 K	0.1	0.0717	–	0.00487	0.0782	0.00433	0.00642	0.00388	0.0545
283.15 K	0.121	0.0892	0.00124	0.00619	0.0906	0.00517	0.00759	0.00487	0.0657
288.15 K	0.146	0.116	0.00159	0.00785	0.109	0.00635	0.00928	0.00609	0.082
293.15 K	0.179	0.147	0.00204	0.00993	0.132	0.00778	0.0117	0.00763	0.103
298.15 K	0.218	0.185	0.0026	0.0125	0.159	0.00944	0.0146	0.00975	0.128
303.15 K	0.264	0.233	0.00333	0.0158	0.191	0.0117	0.0183	0.0124	0.161
308.15 K	0.319	0.292	0.0043	0.0204	0.23	0.0145	0.0231	0.0157	0.2
313.15 K	0.384	0.367	0.0056	0.0262	0.277	0.018	0.0299	0.0204	0.254
318.15 K	0.458	0.454	0.00743	0.0355	0.341	0.023	0.0389	0.0265	0.328

CC(=O)c1ccc([N+](=O)[O-])cc1
solubility (mole fraction)
Conditions	in acetone	in acetonitrile	in cyclohexane	in ethanol	in ethyl acetate	in isopropanol	in methanol	in n-propanol	in toluene
278.15 K	0.134	0.103	–	0.00667	0.101	0.00349	0.00839	0.00481	0.0674
283.15 K	0.158	0.123	0.00154	0.00821	0.117	0.00455	0.0102	0.00608	0.0806
288.15 K	0.185	0.146	0.00203	0.01	0.137	0.00577	0.0125	0.00762	0.0959
293.15 K	0.216	0.174	0.00259	0.0123	0.161	0.00758	0.0155	0.00968	0.114
298.15 K	0.25	0.206	0.00332	0.0155	0.188	0.00978	0.0187	0.0121	0.137
303.15 K	0.287	0.244	0.00423	0.019	0.22	0.0128	0.0231	0.0154	0.164
308.15 K	0.33	0.287	0.00542	0.0236	0.257	0.0169	0.0283	0.0194	0.195
313.15 K	0.376	0.336	0.00694	0.0293	0.3	0.0223	0.0343	0.0246	0.232
318.15 K	0.428	0.389	0.0089	0.0365	0.345	0.0296	0.0421	0.0313	0.275
